Source: ChEMBL document CHEMBL3885861, “Open TG-GATES”

Organism: Rattus norvegicus
Test: Open TG-GATES - Regimen: Single
Type: toxicity, organism-based, Sprague-Dawley
Parameters: regimen Single, gender Male, age 6 weeks
Details: in vivo, iv, 0 mg/kg, route intravenous injection, dose level Control; for APTT / Bas / Eos / Fbg / Hb / Ht / Lym / MCH / MCHC / MCV / Mono / Neu / PT / Plat / RBC / Ret / WBC: tissue Blood; for KIDNEY_L / KIDNEY_R / KIDNEY_TOTAL: tissue Kidney; for LIVER: tissue Liver; for A/G / ALP / ALT / AST / BUN / CRE / Ca / Cl / DBIL / GLC / IP / K / LDH / Na / PL / RALB / TBIL / TC / TG / TP / gamma-GTP: tissue Plasma

SMILES: C[C@@H]1[C@H](O)[C@@H](C)/C=C/C=C/C=C/C=C/C=C/C=C/C=C/[C@H](O[C@@H]2O[C@H](C)[C@@H](O)[C@H](N)[C@@H]2O)C[C@@H]2O[C@](O)(C[C@@H](O)C[C@@H](O)[C@H](O)CC[C@@H](O)C[C@@H](O)CC(=O)O[C@H]1C)C[C@H](O)[C@H]2C(=O)O [AMPHOTERICIN B]
- TERMINAL_BW (3 h): 219.1 g
- APTT (3 h): 17.6 s
- Bas (3 h): 0%
- Eos (3 h): 0.6%
- Fbg (3 h): 275.4 mg/dL
- Hb (3 h): 13.2 g/dL
- Ht (3 h): 39.1%
- Lym (3 h): 78.4%
- MCH (3 h): 20.8 pg
- MCHC (3 h): 33.9%
- MCV (3 h): 61.3 fL
- Mono (3 h): 2.6%
- Neu (3 h): 17.2%
- PT (3 h): 13.1 s
- Plat (3 h): 131.5 x10_4/uL
- RBC (3 h): 638.4 x10_4/ul
- Ret (3 h): 7%
- WBC (3 h): 102.7 x10_2/uL
- KIDNEY_L (3 h): 0.9 g
- KIDNEY_R (3 h): 1 g
- KIDNEY_TOTAL (3 h): 1.9 g
- LIVER (3 h): 9.9 g
- A/G (3 h): 0.8
- ALP (3 h): 1671 IU/L
- ALT (3 h): 40.4 IU/L
- AST (3 h): 86 IU/L
- BUN (3 h): 11.4 mg/dL
- CRE (3 h): 0.2 mg/dL
- Ca (3 h): 11 mg/dL
- Cl (3 h): 106.2 meq/L
- DBIL (3 h): 0.02 mg/dL
- GLC (3 h): 167.2 mg/dL
- IP (3 h): 8.3 mg/dL
- K (3 h): 3.9 meq/L
- LDH (3 h): 67 IU/L
- Na (3 h): 142 meq/L
- PL (3 h): 130.4 mg/dL
- RALB (3 h): 2.5 g/dL
- TBIL (3 h): 0.066 mg/dL
- TC (3 h): 75.4 mg/dL
- TG (3 h): 58.8 mg/dL
- TP (3 h): 5.5 g/dL
- gamma-GTP (3 h): 1.6 IU/L
- TERMINAL_BW (6 h): 212 g
- APTT (6 h): 17 s
- Bas (6 h): 0%
- Eos (6 h): 0.8%
- Fbg (6 h): 271.2 mg/dL
- Hb (6 h): 13.4 g/dL
- Ht (6 h): 39.9%
- Lym (6 h): 77.2%
- MCH (6 h): 21.1 pg
- MCHC (6 h): 33.6%
- MCV (6 h): 62.6 fL
- Mono (6 h): 1.8%
- Neu (6 h): 19.6%
- PT (6 h): 13.1 s
- Plat (6 h): 129.4 x10_4/uL
- RBC (6 h): 637.4 x10_4/ul
- Ret (6 h): 8.6%
- WBC (6 h): 90.4 x10_2/uL
- KIDNEY_L (6 h): 0.9 g
- KIDNEY_R (6 h): 0.9 g
- KIDNEY_TOTAL (6 h): 1.9 g
- LIVER (6 h): 8.8 g
- A/G (6 h): 0.8
- ALP (6 h): 1553.8 IU/L
- ALT (6 h): 35.6 IU/L
- AST (6 h): 68 IU/L
- BUN (6 h): 8.4 mg/dL
- CRE (6 h): 0.1 mg/dL
- Ca (6 h): 10.6 mg/dL
- Cl (6 h): 105 meq/L
- DBIL (6 h): 0.014 mg/dL
- GLC (6 h): 182.2 mg/dL
- IP (6 h): 9.9 mg/dL
- K (6 h): 3.9 meq/L
- LDH (6 h): 50.8 IU/L
- Na (6 h): 142 meq/L
- PL (6 h): 125.8 mg/dL
- RALB (6 h): 2.5 g/dL
- TBIL (6 h): 0.064 mg/dL
- TC (6 h): 76.2 mg/dL
- TG (6 h): 46.8 mg/dL
- TP (6 h): 5.5 g/dL
- gamma-GTP (6 h): 1.6 IU/L
- TERMINAL_BW (9 h): 208.7 g
- APTT (9 h): 17.4 s
- Bas (9 h): 0%
- Eos (9 h): 1%
- Fbg (9 h): 281.4 mg/dL
- Hb (9 h): 13.4 g/dL
- Ht (9 h): 39.1%
- Lym (9 h): 71.8%
- MCH (9 h): 21.1 pg
- MCHC (9 h): 34.2%
- MCV (9 h): 61.6 fL
- Mono (9 h): 1.8%
- Neu (9 h): 24.4%
- PT (9 h): 13.2 s
- Plat (9 h): 136.6 x10_4/uL
- RBC (9 h): 635 x10_4/ul
- Ret (9 h): 8.1%
- WBC (9 h): 80.2 x10_2/uL
- KIDNEY_L (9 h): 0.9 g
- KIDNEY_R (9 h): 0.9 g
- KIDNEY_TOTAL (9 h): 1.8 g
- LIVER (9 h): 8.3 g
- A/G (9 h): 0.8
- ALP (9 h): 1611.8 IU/L
- ALT (9 h): 30.6 IU/L
- AST (9 h): 67.6 IU/L
- BUN (9 h): 8.6 mg/dL
- CRE (9 h): 0.1 mg/dL
- Ca (9 h): 10.6 mg/dL
- Cl (9 h): 106.4 meq/L
- DBIL (9 h): 0.018 mg/dL
- GLC (9 h): 170.2 mg/dL
- IP (9 h): 9.7 mg/dL
- K (9 h): 3.7 meq/L
- LDH (9 h): 54.8 IU/L
- Na (9 h): 142.2 meq/L
- PL (9 h): 120.8 mg/dL
- RALB (9 h): 2.5 g/dL
- TBIL (9 h): 0.068 mg/dL
- TC (9 h): 72.6 mg/dL
- TG (9 h): 43.8 mg/dL
- TP (9 h): 5.6 g/dL
- gamma-GTP (9 h): 1.8 IU/L
- TERMINAL_BW (24 h): 228.2 g
- APTT (24 h): 15.8 s
- Bas (24 h): 0.2%
- Eos (24 h): 1%
- Fbg (24 h): 302.6 mg/dL
- Hb (24 h): 13 g/dL
- Ht (24 h): 38.7%
- Lym (24 h): 78.8%
- MCH (24 h): 20.9 pg
- MCHC (24 h): 33.6%
